Measurements as given in patent US20210386756A1, “IMPROVEMENTS FOR PERFORMING AND FACILITATING THE RECOVERY AFTER HEMATOPOIETIC STEM CELL TRANSPLANTATION” (Centro de Investigaciones Energéticas, Medioambientales y …, priority 2018, published 2021).

Legend:
[1] = test system: human cord-blood CD34+ cells; test: Human hematopoietic engraftment in male NSG mice transplanted with 5×10^4 human cord-blood CD34+ cells; assay type: in vivo, mouse; details: male NSG, 5×10^4 CD34+, 2 μg daily for four days, mean +/− SEM
Procedure: Three-four months later, the animals were sacrificed and the human hematopoietic engraftment was analyzed by FACS. Human hematopoietic population was identified as the cells positive for hCD45-APC-Cy7 (Biolegend) and negative for mouse CD45.1-PE (Biolegend). In order to further examine the effect of the estrogen in HSCT, hematopoietic progenitors (hCD34+) and hematopoietic stem cells (hCD34+/hCD38−) were analyzed by FACS inside of the human population in the treated NSG described in Example 1.

human cord blood CD34+ [2] = test: Human engraftment in male NSG mice transplanted with a limited CD34+ cell dose (5×10^3); assay type: in vivo, mouse
Procedure: FIG. 6A indicates the level of human engraftment, which was raised by E4 administration. […] (Kruskal-Wallis test; P=0.1150, 7-10 mice per group). […] Three-four months later, the animals were sacrificed and the human hematopoietic engraftment was analyzed by FACS. Human hematopoietic population was identified as the cells positive for hCD45-APC-Cy7 (Biolegend) and negative for mouse CD45.1-PE (Biolegend). To determine whether estrogen can improve hematopoietic reconstitution of low number of hematopoietic progenitors, male NSG were irradiated and transplanted with low doses of human cord blood CD34+ (5×103 hCD34+). The human engraftment was analyzed as described in Example 1.

human cord blood CD34+ [3] = test: Human engraftment in female NSG mice transplanted with a limited CD34+ cell dose (5×10^3); assay type: in vivo, mouse; details: low dose 5×10^3 hCD34+, mean +/− SEM
From the text: FIG. 7A indicates human hematopoietic reconstitution after four months. […] However, in spite of this presence of endogenous estrogens, the human engraftment in female recipients was increased after E2 and more importantly after E4 treatment. FIG. 7B relates the presence of primitive hematopoietic progenitors was higher in the female mice treated with estrogens, which indicated the quality of the reconstitution. (Kruskal-Wallis test; P<0.05, 4 mice per group). […] Three-four months later, the animals were sacrificed and the human hematopoietic engraftment was analyzed by FACS. Human hematopoietic population was identified as the cells positive for hCD45-APC-Cy7 (Biolegend) and negative for mouse CD45.1-PE (Biolegend). To assess whether estrogen can improve hematopoietic reconstitution in female recipients, female NSG were irradiated and transplanted by a low doses of human cord blood CD34^+ (5×10^3 hCD34^+). The human engraftment was analyzed as described in Example 1. […] However, in spite of this presence of endogenous estrogens, the human engraftment in female recipients was increased after E2 and more importantly after E4 treatment.

[4] = test system: human hematopoietic progenitors (CB-CD34+); test: LTC-IC human bone marrow-like co-culture (hMSC + hCD34+) and CFU assay; assay type: cell-based
Procedure: LTC-IC was established through the co-culture of human bone marrow Mesenchymal Stromal Cells (BM-MSC) and human progenitors (CB-CD34+) to research the positive effects of the estrogens in a human context, such as an in vitro human bone marrow model. LTC-ICs were treated with vehicle or 100 µM of E2 or E4 for a week. […] Cells were plated in methycellulose media with specific hematopoietic cytokines to evaluate the hematopoietic progenitor content. After 14 days, colony forming units (CFU) were counted. Data were normalized to control groups. […] 1×10^5 human mesenchymal stromal cells (hMSC) were seeded in a p6 well and irradiated with 30 Gy next day. The following day, 5×10^4 hCD34^+ were added to the hMSC in LTC-IC media: 75% α-MEM without Phenol Red (Life Technologies), 12.5% Hyclone FBS (GE Healthcare), HS (Life Technologies), β-mercaptoethanol (Life Technologies), 0.5% PS and 1×10^−6 M Hydrocortisone (Sigma-Aldrich). 100 μM of estrogens, dissolved in ethanol, was added to the co-culture for a week, and then the cells were collected and the amount of human hematopoietic progenitors were evaluated in semisolid media supplement with specific hematopoietic cytokines (H4535, StemCell Technologies) plus 8 U/ml hEPO. After fourteen days, colony-forming units (CFU) were evaluated and normalized to the control: […]

[5] = test system: hCD34+ hematopoietic progenitors; test: In vitro toxicity of natural estrogens for hematopoietic progenitors (hCD34+ culture, FACS subsets); assay type: cell-based, human; details: for toxicity for hematopoietic progenitor subpopulations: 10 nM to 500 μM, in vitro; for % CD34+/CD38− / % HSC / % MLP / % MPP: four days culture
Procedure: FIG. 9 relates the effect of different concentration of E1, E2, E3 and E4 in human hematopoietic progenitors. Human hematopoietic progenitors were culture in phenol red free media supplemented with 100 ng/mL SCF, 100 ng/ml FLT3L and 100 ng/ml TPO and different concentration of E1, E2, E3 and E4 (from 10 nM to 500 μM). FIG. 9A represents the fold increase of the number of hematopoietic cells after four days in culture. FIG. 9B indicates the total number of primitive hematopoietic progenitors (CD34^+/CD38^−) present in the culture, extrapolated from number of cells and the frequency of this population analyzed by FACS. […] Grey dashed lines point the value of control group, and red dashed lines indicate the initial values at day 0. (Kruskal-Wallis test; P<0.05, data from four independent experiments).
To assess the toxicity of the natural estrogens (E1, E2, E3 and E4) for hematopoietic progenitors, in vitro studies were performed. 5×10^4 hCD34^+ were cultured in a phenol red-free media, X-Vivo 20 (Lonza), in presence of 100 ng/ml SCF, 100 ng/ml FLT3L, 100 ng/ml TPO, 0.5% PS, 1% Glutamax (Thermofisher) and different concentrations of E1, E2, E3 or E4 (from 10 nM to 500 μM). Cell proliferation and immunophenotype of different hematopoietic subsets (CD34^+/CD38^−, HSC [CD34^+/CD38^−/CD45RA^−/CD90^+], Multipotent Progenitors [MPP, CD34^+/CD38^−/CD45RA^−/CD90^−], Multipotent Lymphoid Progenitors [MLP, CD34^+/CD38^−/CD45RA^+] were evaluated at day 0 and four days after culture.

[6] = 100 μM for a week, versus vehicle

C[C@]12CC[C@@H]3c4ccc(O)cc4CC[C@H]3[C@@H]1CC[C@@H]2O [E2, 17β-estradiol]
Percentage in the human hematopoietic population: hematopoietic stem cells ([1]; hCD34+/hCD38−): 0.52 +/− 0.07 (n = 13) % | Percentage in the human hematopoietic population: hematopoietic progenitors ([1]; hCD34+): 9.35 +/− 0.86 (n = 13) % | Percentage of human hematopoietic reconstitution ([1]; three-four months later): 46.05 +/− 5.98 (n = 13) % | Percentage in the human hematopoietic population: Lymphoid ([1]; CD19+): 82.26 +/− 2.14 (n = 9) % | Percentage in the human hematopoietic population: Myeloid ([1]; CD33+): 8.42 +/− 0.88 (n = 9) % | proportion of engrafted mice (human engraftment above 0.1%) (human cord blood CD34+ [2]; 5×10^3 CB-CD34+): 70% | change of the proportion of engrafted mice versus vehicle (human cord blood CD34+ [2]; limited HPC dose, engraftment above 0.1%): almost tripled | Percentage of human hematopoietic reconstitution (human cord blood CD34+ [2]; low dose 5×103 hCD34+, mean +/− SEM): 2.12 +/− 1.05 (n = 10) % | Percentage of hematopoietic stem cells (hCD34+/hCD38−) in the human hematopoietic population (human cord blood CD34+ [3]): 0.34 +/− 0.12 (n = 3) % | Percentage of human hematopoietic reconstitution (human cord blood CD34+ [3]): 23.90 +/− 4.65 (n = 3) % | Normalized human CFU ([4]; 100 μM estrogen for a week, CFU after fourteen days, normalized to control, mean +/− SEM): 1.50 +/− 0.21 (n = 6) | number of hematopoietic cells in LTC-IC [4, 6]: reduced | total number of primitive hematopoietic progenitors in LTC-IC [4, 6]: did not change | toxicity for hematopoietic progenitor subpopulations [5]: more toxic | % CD34+/CD38− ([5]; 10 nM): 11.99 ± 0.99% | % HSC ([5]; 10 nM): 1.52 ± 0.24% | % MLP ([5]; 10 nM): 4.23 ± 0.82% | % MPP ([5]; 10 nM): 4.33 ± 0.33% | % CD34+/CD38− ([5]; 100 nM): 10.74 ± 0.29% | % HSC ([5]; 100 nM): 4.25 ± 2.95% | % MLP ([5]; 100 nM): 3.72 ± 0.31% | % MPP ([5]; 100 nM): 3.20 ± 0.76% | % CD34+/CD38− ([5]; 1 μM): 13.43 ± 0.60% | % HSC ([5]; 1 μM): 1.59 ± 0.15% | % MLP ([5]; 1 μM): 3.98 ± 0.14% | % MPP ([5]; 1 μM): 5.62 ± 0.74% | % CD34+/CD38− ([5]; 10 μM): 17.52 ± 2.19% | % HSC ([5]; 10 μM): 1.86 ± 0.12% | % MLP ([5]; 10 μM): 6.79 ± 1.96% | % MPP ([5]; 10 μM): 4.97 ± 0.23% | % CD34+/CD38− ([5]; 100 μM): 14.52 ± 2.88% | % HSC ([5]; 100 μM): 4.50 ± 1.91% | % MLP ([5]; 100 μM): 1.76 ± 0.66% | % MPP ([5]; 100 μM): 7.08 ± 1.80% | % CD34+/CD38− ([5]; 500 μM): 11.93 ± 2.95% | % HSC ([5]; 500 μM): 3.97 ± 2.39% | % MLP ([5]; 500 μM): 1.01 ± 0.24% | % MPP ([5]; 500 μM): 6.96 ± 2.54%

C[C@]12CC[C@@H]3c4ccc(O)cc4CC[C@H]3[C@@H]1C[C@@H](O)[C@@H]2O [E3, estriol]
toxicity for hematopoietic progenitor subpopulations [5]: more toxic | % CD34+/CD38− ([5]; 10 nM): 14.77 ± 0.41% | % HSC ([5]; 10 nM): 1.87 ± 0.09% | % MLP ([5]; 10 nM): 4.94 ± 0.70% | % MPP ([5]; 10 nM): 5.75 ± 0.21% | % CD34+/CD38− ([5]; 100 nM): 18.28 ± 1.30% | % HSC ([5]; 100 nM): 2.28 ± 0.03% | % MLP ([5]; 100 nM): 6.46 ± 0.83% | % MPP ([5]; 100 nM): 7.25 ± 0.46% | % CD34+/CD38− ([5]; 1 μM): 14.96 ± 0.57% | % HSC ([5]; 1 μM): 4.94 ± 2.86% | % MLP ([5]; 1 μM): 2.72 ± 2.38% | % MPP ([5]; 1 μM): 5.57 ± 0.12% | % CD34+/CD38− ([5]; 10 μM): 15.89 ± 0.62% | % HSC ([5]; 10 μM): 1.95 ± 0.13% | % MLP ([5]; 10 μM): 5.24 ± 0.65% | % MPP ([5]; 10 μM): 6.18 ± 0.47% | % HSC ([5]; 100 μM): 4.13% | % MLP ([5]; 100 μM): 0.15% | % MPP ([5]; 100 μM): 6.44% | % CD34+/CD38− ([5]; 500 μM): 17.92 ± 2.56% | % HSC ([5]; 500 μM): 3.70 ± 1.51% | % MLP ([5]; 500 μM): 4.73 ± 1.60% | % MPP ([5]; 500 μM): 7.61 ± 2.91%

C[C@]12CC[C@@H]3c4ccc(O)cc4CC[C@H]3[C@@H]1CCC2=O [E1, estrone]
toxicity for hematopoietic progenitor subpopulations [5]: more toxic | % CD34+/CD38− ([5]; 10 nM): 12.32 ± 2.72% | % HSC ([5]; 10 nM): 2.19 ± 0.65% | % MLP ([5]; 10 nM): 3.32 ± 1.90% | % MPP ([5]; 10 nM): 4.69 ± 0.88% | % CD34+/CD38− ([5]; 100 nM): 12.91 ± 5.83% | % HSC ([5]; 100 nM): 2.12 ± 0.29% | % MLP ([5]; 100 nM): 4.12 ± 3.56% | % MPP ([5]; 100 nM): 4.37 ± 1.47% | % CD34+/CD38− ([5]; 1 μM): 10.11 ± 2.31% | % HSC ([5]; 1 μM): 2.31 ± 0.45% | % MLP ([5]; 1 μM): 1.80 ± 0.92% | % MPP ([5]; 1 μM): 4.48 ± 1.50% | % CD34+/CD38− ([5]; 10 μM): 10.54 ± 3.34% | % HSC ([5]; 10 μM): 2.25 ± 0.41% | % MLP ([5]; 10 μM): 2.92 ± 2.12% | % MPP ([5]; 10 μM): 3.66 ± 0.89% | % CD34+/CD38− ([5]; 100 μM): 11.02% | % HSC ([5]; 100 μM): 0.67% | % MLP ([5]; 100 μM): 4.46% | % MPP ([5]; 100 μM): 3.86% | % CD34+/CD38− ([5]; 500 μM): 14.80 ± 4.62% | % HSC ([5]; 500 μM): 1.75 ± 0.51% | % MLP ([5]; 500 μM): 4.64 ± 3.09% | % MPP ([5]; 500 μM): 5.87 ± 1.34%
